Experimental data published in article PMC8231113, “Protein Secondary Structure Affects Glycan Clustering in Native Mass Spectrometry” (Life, 2021).

Columns and labels:
Type in all cases: binding
[1] = molecular target: T1, ubiquitin from bovine erythrocytes (Ubq) (Bos taurus, UniProt P0CG53); test: Native MS glycan clustering to reference protein Ubq; conditions: on Ubq
T1 construct: ubiquitin from bovine erythrocytes (Ubq, CAS number 75986-22-4); purchased Sigma-Aldrich (Merck, Germany); host or cells: bovine erythrocytes
Procedure: (§1) Prior to MS analysis, purified P dimers were buffer exchanged to 150 mM ammonium acetate (Sigma-Aldrich, reagent grade ≥98%) at pH 7 via centrifugal filter units at 12,000× g at 4 °C (Vivaspin 500, MWCO 10000, Sartorius). Glycans for native MS analysis were mixed with 1 µM (per monomer) purified GII.4 Saga P dimer and 3 µM of the reference proteins at indicated concentrations. Native mass spectra were measured at room temperature in positive ion mode on a high mass modified LCT Premier mass spectrometer (Waters/Micromass, UK and MS Vision, the Netherlands) with a nano-ESI source. In house-made gold-coated electrospray capillaries were used for direct-sample infusion without any accessory chromatographic separation. The voltages and pressures were optimized for non-covalent protein complexes. The gas pressure used in the source hexapole was set between 6.5 and 6.8 × 10^−2 mbar argon optimized for minimal complex dissociation and the backing pressure of the source roughing pump was set between 7.0 and 8.5 mbar. Spectra were recorded with applied voltages for the capillary and cone of 1.20 kV and 240 V, respectively. Note that charge state distributions for P dimers were sometimes slightly shifted as was the degree of glycan clustering per charge state. These changes were highly variable and not quantifiable.
(§2) For calibration of the raw data, a 25 mg/mL cesium iodide spectrum from the same day was used. MassLynx V4.1 (Waters, Manchester, UK) was used to assign peak series to protein species and to determine the mass after minimal smoothing. Furthermore, OriginPro 2016 SR2 (OriginLab, Northampton, MA, USA) was used for spectral deconvolution and curve fitting. Correction for nonspecific protein-ligand clustering was performed as described. Corrected peak areas were averaged and normalized to the free-protein signal. Data were based on at least three independent measurements. Python code Panda and Numpy package were used to calculate the specific binding of P dimers according to the glycan clustering ratio obtained from the selected reference protein candidates. Seaborn and matplotlib.pyplot package were imported into a python script to plot the results. The module of sklearn.linear model was applied for linear regression. The matplotlib and heatmap package were used to plot the heatmap.
(§3) Theoretically, the KD is calculated by measuring the concentration of the three components (Pfree, Lfree, PL) in solution. Usually, these values are only indirectly accessible because they require ligand titration up to binding saturation. However, native MS allows for the directly measurement of Pfree and PL, from which Lfree can be calculated using the input concentrations. In the present work, the non-covalent interaction was measured in the gas phase assuming identical ESI and detection efficiency for free and glycan-associated proteins, both for the analyte and the reference protein. […] For P dimers, the equations reflect glycan binding to the individual monomers assuming that binding sites on each monomer are equal and independent.
(§4) Using R described in Equation (3), the KD calculation can be re-written into Equation (4) with the known initial concentration of glycan ligand [L0] and protein [P0], adapted from Sun et al.:(3) R=PLequil∕Pequil=∑nA(PL^n+)∕n∕∑nA(P^n+)∕n (4) KD =L0−RP0/1+R/R
(§5) For the carbohydrate-binding experiments, it was essential to keep the initial protein concentrations and pH value constant during the analysis of the protein-carbohydrate solutions. While acidification occurs in any ESI droplet, the remaining solution in the capillary changes pH over time. Therefore, accumulated spectra were obtained within 10 min after the voltages were applied to minimize the influence of pH changes during the measurements. […]

[2] = molecular target: T2, human apo-transferrin (apo-TFF) (Homo sapiens, UniProt P02787); test: Native MS glycan clustering to reference protein apo-TFF; conditions: on apo-TFF
T2 construct: purchased Sigma-Aldrich (Merck, Germany)
T2 sequence (P02787 20-698): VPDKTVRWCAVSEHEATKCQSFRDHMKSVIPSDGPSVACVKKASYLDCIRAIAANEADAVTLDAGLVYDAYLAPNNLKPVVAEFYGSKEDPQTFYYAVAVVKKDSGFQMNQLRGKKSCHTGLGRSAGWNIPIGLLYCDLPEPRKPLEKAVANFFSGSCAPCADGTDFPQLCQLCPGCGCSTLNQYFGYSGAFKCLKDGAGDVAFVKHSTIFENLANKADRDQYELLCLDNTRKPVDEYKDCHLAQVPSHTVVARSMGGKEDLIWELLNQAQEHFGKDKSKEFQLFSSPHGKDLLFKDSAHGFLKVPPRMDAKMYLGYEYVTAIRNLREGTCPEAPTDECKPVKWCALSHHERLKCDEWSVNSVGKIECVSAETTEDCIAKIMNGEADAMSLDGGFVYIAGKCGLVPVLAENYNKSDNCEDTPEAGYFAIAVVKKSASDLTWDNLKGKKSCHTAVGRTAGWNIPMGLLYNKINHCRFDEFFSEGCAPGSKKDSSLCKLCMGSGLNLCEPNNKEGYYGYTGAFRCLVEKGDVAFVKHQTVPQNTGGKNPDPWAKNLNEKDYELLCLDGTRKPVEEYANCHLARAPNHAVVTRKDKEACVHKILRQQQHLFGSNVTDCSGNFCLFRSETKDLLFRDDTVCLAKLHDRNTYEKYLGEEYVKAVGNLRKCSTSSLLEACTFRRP
Procedure: as §1, §2, §3, §4, §5

[3] = molecular target: T3, carbonic anhydrase isozyme II from bovine erythrocytes (CA) (Bos taurus, UniProt P00921); test: Native MS glycan clustering to reference protein CA; conditions: on CA
T3 construct: carbonic anhydrase isozyme II from bovine erythrocytes (CA, CAS number 9001-03-0); purchased Sigma-Aldrich (Merck, Germany); host or cells: bovine erythrocytes
T3 sequence (P00921 whole entry): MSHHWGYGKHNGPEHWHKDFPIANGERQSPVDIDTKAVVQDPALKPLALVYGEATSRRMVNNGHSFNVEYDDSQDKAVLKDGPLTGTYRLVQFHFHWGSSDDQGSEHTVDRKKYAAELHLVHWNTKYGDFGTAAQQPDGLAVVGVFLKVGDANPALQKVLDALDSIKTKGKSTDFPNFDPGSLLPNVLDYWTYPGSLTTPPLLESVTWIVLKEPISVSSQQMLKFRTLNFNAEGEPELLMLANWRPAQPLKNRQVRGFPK
Procedure: as §1, §2, §3, §4, §5

[4] = molecular target: T4, cytochrome c from equine heart (cyt c) (Equus caballus, UniProt P00004); test: Native MS glycan clustering to reference protein cyt c; conditions: on Cyt c
T4 construct: cytochrome c from equine heart (cyt c, CAS number 9007-43-6); purchased Sigma-Aldrich (Merck, Germany); host or cells: equine heart
T4 sequence (P00004 whole entry): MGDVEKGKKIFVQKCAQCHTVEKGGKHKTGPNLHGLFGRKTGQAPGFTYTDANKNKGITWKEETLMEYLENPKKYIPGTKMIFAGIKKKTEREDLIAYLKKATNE
Procedure: as §1, §2, §3, §4, §5

[5] = molecular target: T5, alcohol dehydrogenase from Saccharomyces cerevisiae (ADH) (Saccharomyces cerevisiae, UniProt P00330); test: Native MS glycan clustering to reference protein ADH; conditions: on ADH
T5 construct: alcohol dehydrogenase from Saccharomyces cerevisiae (ADH, CAS number 9031-72-5); purchased Sigma-Aldrich (Merck, Germany); host or cells: Saccharomyces cerevisiae
T5 sequence (P00330 2-348 limits assumed): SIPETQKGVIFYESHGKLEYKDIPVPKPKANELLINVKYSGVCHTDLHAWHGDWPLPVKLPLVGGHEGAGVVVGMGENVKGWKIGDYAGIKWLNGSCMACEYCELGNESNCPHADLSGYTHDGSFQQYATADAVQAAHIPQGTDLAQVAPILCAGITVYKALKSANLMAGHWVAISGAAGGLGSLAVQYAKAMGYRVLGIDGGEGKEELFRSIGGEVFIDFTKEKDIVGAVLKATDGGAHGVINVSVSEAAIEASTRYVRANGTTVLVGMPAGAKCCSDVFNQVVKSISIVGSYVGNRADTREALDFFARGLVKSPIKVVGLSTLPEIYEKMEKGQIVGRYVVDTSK
Procedure: as §1, §2, §3, §4, §5

[6] = molecular target: T6, myoglobin from equine heart (Myo) (Equus caballus, UniProt P68082); test: Native MS glycan clustering to reference protein Myo; conditions: on Myo
T6 construct: myoglobin from equine heart (Myo, CAS number 100684-32-0); purchased Sigma-Aldrich (Merck, Germany); host or cells: equine heart
T6 sequence (P68082 whole entry): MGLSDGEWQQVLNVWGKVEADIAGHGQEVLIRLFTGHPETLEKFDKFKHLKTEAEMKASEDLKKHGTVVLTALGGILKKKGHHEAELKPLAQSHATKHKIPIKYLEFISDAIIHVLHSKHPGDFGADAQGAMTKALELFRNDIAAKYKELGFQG
Procedure: as §1, §2, §3, §4, §5

CC(=O)N[C@H]1[C@@H](O[C@H]2[C@@H](O)[C@@H](CO)O[C@@H](O[C@H]3[C@H](O)[C@@H](CO)OC(O)[C@@H]3NC(C)=O)[C@@H]2O[C@@H]2O[C@@H](C)[C@@H](O)[C@@H](O)[C@@H]2O)O[C@H](CO)[C@H](O)[C@@H]1O (stereo partly drawn) [HBGA A, GalNAcα1-3(Fucα-2)Galβ1-3GlcNAc]
Glycan-Clustering Ratio R ([1]; 100 µM glycan): 0.06±0.03 | Glycan-Clustering Ratio R ([1]; 200 µM glycan): 0.04±0.01 | Glycan-Clustering Ratio R ([1]; 300 µM glycan): 0.13±0.01 | Glycan-Clustering Ratio R ([1]; 400 µM glycan): 0.18±0.01 | Glycan-Clustering Ratio R ([1]; 500 µM glycan): 0.10 ± 0.05 | Glycan-Clustering Ratio R ([2]; 100 µM glycan): 0.39±0.02 | Glycan-Clustering Ratio R ([2]; 200 µM glycan): 0.57±0.05 | Glycan-Clustering Ratio R ([2]; 300 µM glycan): 0.65±0.02 | Glycan-Clustering Ratio R ([2]; 400 µM glycan): 0.71±0.03 | Glycan-Clustering Ratio R ([2]; 500 µM glycan): 0.79 ± 0.03 | Glycan-Clustering Ratio R ([3]; 100 µM glycan): 0.20±0.05 | Glycan-Clustering Ratio R ([3]; 200 µM glycan): 0.37±0.01 | Glycan-Clustering Ratio R ([3]; 300 µM glycan): 0.42±0.02 | Glycan-Clustering Ratio R ([3]; 400 µM glycan): 0.57±0.02 | Glycan-Clustering Ratio R ([3]; 500 µM glycan): 0.74 ± 0.07 | Glycan-Clustering Ratio R ([4]; 100 µM glycan): 0.18±0.03 | Glycan-Clustering Ratio R ([4]; 200 µM glycan): 0.16± 0.02 | Glycan-Clustering Ratio R ([4]; 300 µM glycan): 0.19± 0.03 | Glycan-Clustering Ratio R ([4]; 400 µM glycan): 0.27± 0.02 | Glycan-Clustering Ratio R ([4]; 500 µM glycan): 0.41 ± 0.09 | Glycan-Clustering Ratio R ([5]; 100 µM glycan): 0.39± 0.02 | Glycan-Clustering Ratio R ([5]; 200 µM glycan): 0.65± 0.02 | Glycan-Clustering Ratio R ([5]; 300 µM glycan): 0.88± 0.10 | Glycan-Clustering Ratio R ([5]; 400 µM glycan): 0.98± 0.05 | Glycan-Clustering Ratio R ([5]; 500 µM glycan): 1.32 ± 0.10 | Glycan-Clustering Ratio R ([6]; 100 µM glycan): 0.13±0.03 | Glycan-Clustering Ratio R ([6]; 200 µM glycan): 0.16±0.03 | Glycan-Clustering Ratio R ([6]; 300 µM glycan): 0.22±0.03 | Glycan-Clustering Ratio R ([6]; 400 µM glycan): 0.29±0.04 | Glycan-Clustering Ratio R ([6]; 500 µM glycan): 0.34 ± 0.03

CC(=O)N[C@H]1C(O)O[C@H](CO)[C@@H](O)[C@@H]1O[C@@H]1O[C@H](CO)[C@H](O)[C@H](O[C@H]2O[C@H](CO)[C@H](O)[C@H](O)[C@H]2O)[C@H]1O[C@@H]1O[C@@H](C)[C@@H](O)[C@@H](O)[C@@H]1O (stereo partly drawn) [HBGA B, Galα1-3(Fucα1-2)Galβ1-3GlcNAc]
Glycan-Clustering Ratio R ([1]; 100 µM glycan): 0.04±0.01 | Glycan-Clustering Ratio R ([1]; 200 µM glycan): 0.04±0.01 | Glycan-Clustering Ratio R ([1]; 300 µM glycan): 0.10±0.03 | Glycan-Clustering Ratio R ([1]; 400 µM glycan): 0.18±0.01 | Glycan-Clustering Ratio R ([1]; 500 µM glycan): 0.25 ± 0.00 | Glycan-Clustering Ratio R ([2]; 100 µM glycan): 0.37±0.03 | Glycan-Clustering Ratio R ([2]; 200 µM glycan): 0.56±0.05 | Glycan-Clustering Ratio R ([2]; 300 µM glycan): 0.62±0.03 | Glycan-Clustering Ratio R ([2]; 400 µM glycan): 0.74±0.01 | Glycan-Clustering Ratio R ([2]; 500 µM glycan): 0.82 ± 0.03 | Glycan-Clustering Ratio R ([3]; 100 µM glycan): 0.22±0.03 | Glycan-Clustering Ratio R ([3]; 200 µM glycan): 0.32±0.05 | Glycan-Clustering Ratio R ([3]; 300 µM glycan): 0.40±0.04 | Glycan-Clustering Ratio R ([3]; 400 µM glycan): 0.60±0.05 | Glycan-Clustering Ratio R ([3]; 500 µM glycan): 0.75 ± 0.07 | Glycan-Clustering Ratio R ([4]; 100 µM glycan): 0.14±0.01 | Glycan-Clustering Ratio R ([4]; 200 µM glycan): 0.15±0.01 | Glycan-Clustering Ratio R ([4]; 300 µM glycan): 0.19±0.03 | Glycan-Clustering Ratio R ([4]; 400 µM glycan): 0.29±0.02 | Glycan-Clustering Ratio R ([4]; 500 µM glycan): 0.35 ± 0.03 | Glycan-Clustering Ratio R ([5]; 100 µM glycan): 0.42±0.03 | Glycan-Clustering Ratio R ([5]; 200 µM glycan): 0.64±0.06 | Glycan-Clustering Ratio R ([5]; 300 µM glycan): 0.97±0.08 | Glycan-Clustering Ratio R ([5]; 400 µM glycan): 1.02±0.08 | Glycan-Clustering Ratio R ([5]; 500 µM glycan): 1.45 ± 0.11 | Glycan-Clustering Ratio R ([6]; 100 µM glycan): 0.14±0.03 | Glycan-Clustering Ratio R ([6]; 200 µM glycan): 0.18±0.02 | Glycan-Clustering Ratio R ([6]; 300 µM glycan): 0.19±0.06 | Glycan-Clustering Ratio R ([6]; 400 µM glycan): 0.31±0.04 | Glycan-Clustering Ratio R ([6]; 500 µM glycan): 0.36 ± 0.05

CC(=O)N[C@H]1[C@H](O[C@H]2[C@@H](O)[C@@H](CO)O[C@H](O[C@@H]3[C@H](O)[C@@H](O)[C@H](O[C@H]4[C@H](O)[C@@H](O)C(O)O[C@@H]4CO)O[C@@H]3CO)[C@@H]2O)O[C@H](CO)[C@H](O)[C@@H]1O (stereo partly drawn) [Gb4, GalNAc β1-3 Galα1-4Galβ1-4Glc]
Glycan-Clustering Ratio R ([1]; 100 µM glycan): 0.03±0.01 | Glycan-Clustering Ratio R ([1]; 200 µM glycan): 0.04±0.01 | Glycan-Clustering Ratio R ([1]; 300 µM glycan): 0.12±0.02 | Glycan-Clustering Ratio R ([1]; 400 µM glycan): 0.21±0.20 | Glycan-Clustering Ratio R ([1]; 500 µM glycan): 0.09 ± 0.03 | Glycan-Clustering Ratio R ([2]; 100 µM glycan): 0.36±0.05 | Glycan-Clustering Ratio R ([2]; 200 µM glycan): 0.57±0.06 | Glycan-Clustering Ratio R ([2]; 300 µM glycan): 0.63±0.02 | Glycan-Clustering Ratio R ([2]; 400 µM glycan): 0.69±0.02 | Glycan-Clustering Ratio R ([2]; 500 µM glycan): 0.80 ± 0.05 | Glycan-Clustering Ratio R ([3]; 100 µM glycan): 0.21±0.01 | Glycan-Clustering Ratio R ([3]; 200 µM glycan): 0.32±0.07 | Glycan-Clustering Ratio R ([3]; 300 µM glycan): 0.50±0.00 | Glycan-Clustering Ratio R ([3]; 400 µM glycan): 0.60±0.05 | Glycan-Clustering Ratio R ([3]; 500 µM glycan): 0.75 ± 0.03 | Glycan-Clustering Ratio R ([4]; 100 µM glycan): 0.10±0.01 | Glycan-Clustering Ratio R ([4]; 200 µM glycan): 0.15±0.00 | Glycan-Clustering Ratio R ([4]; 300 µM glycan): 0.19±0.03 | Glycan-Clustering Ratio R ([4]; 400 µM glycan): 0.29±0.04 | Glycan-Clustering Ratio R ([4]; 500 µM glycan): 0.45 ± 0.02 | Glycan-Clustering Ratio R ([5]; 100 µM glycan): 0.34±0.04 | Glycan-Clustering Ratio R ([5]; 200 µM glycan): 0.66±0.03 | Glycan-Clustering Ratio R ([5]; 300 µM glycan): 0.81±0.11 | Glycan-Clustering Ratio R ([5]; 400 µM glycan): 1.03±0.08 | Glycan-Clustering Ratio R ([5]; 500 µM glycan): 1.26 ± 0.03 | Glycan-Clustering Ratio R ([6]; 100 µM glycan): 0.14±0.02 | Glycan-Clustering Ratio R ([6]; 200 µM glycan): 0.17±0.03 | Glycan-Clustering Ratio R ([6]; 300 µM glycan): 0.20±0.03 | Glycan-Clustering Ratio R ([6]; 400 µM glycan): 0.30±0.01 | Glycan-Clustering Ratio R ([6]; 500 µM glycan): 0.37 ± 0.06
